Test results as given in PMC4342496 (The Journal of Biological Chemistry, 2015).
Where two headings read alike, the source gives them in different places.

What was measured:
CjIMPDH [1] = target: T1, CjIMPDH (Campylobacter jejuni, UniProt Q0P9J4); assay: steady-state kinetics, A340; assay type: biochemical; details: substrate inhibition by NAD+; pH 8.0, 25 °C
T1 construct: gene guaB; full-length wild type, N-terminal His6 tag, pMCSG7, E. coli; tetramer
T1 sequence (Q0P9J4 1-485): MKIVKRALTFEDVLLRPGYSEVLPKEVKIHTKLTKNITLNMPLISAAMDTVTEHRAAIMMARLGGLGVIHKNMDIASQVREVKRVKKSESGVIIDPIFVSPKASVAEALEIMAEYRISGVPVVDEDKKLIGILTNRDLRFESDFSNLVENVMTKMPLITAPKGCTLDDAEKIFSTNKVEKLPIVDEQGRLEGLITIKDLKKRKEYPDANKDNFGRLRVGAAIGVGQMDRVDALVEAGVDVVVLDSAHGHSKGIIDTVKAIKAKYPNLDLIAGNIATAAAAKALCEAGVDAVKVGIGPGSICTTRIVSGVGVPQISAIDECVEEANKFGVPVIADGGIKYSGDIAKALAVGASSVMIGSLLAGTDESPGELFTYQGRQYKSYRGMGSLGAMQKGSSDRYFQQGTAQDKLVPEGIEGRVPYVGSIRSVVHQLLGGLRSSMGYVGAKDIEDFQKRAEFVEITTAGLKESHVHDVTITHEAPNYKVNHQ
Text: steady-state kinetics, A340 on CjIMPDH

BaIMPDH = target: T2, BaIMPDH (Bacillus anthracis, UniProt A0A6L8P2U9); assay type: biochemical
T2 construct: gene guaB

CjIMPDHΔS = target: T3, CjIMPDHΔS (Campylobacter jejuni, UniProt Q0P9J4, INS91G/DEL92-195); assay: NADH production, A340; assay type: biochemical; details: pH 8.0, 1 mM IMP, NAD+ about 2.5 x Km, 10 min preincubation, room temperature
T3 construct: gene guaB
T3 sequence (Q0P9J4 1-485 INS91G/DEL92-195): T1 sequence (Q0P9J4 1-485)
Text: NADH production, A340 on CjIMPDHΔS

CpIMPDH = target: T4, CpIMPDH (Cryptosporidium parvum, UniProt Q8T6T2); assay: NADH production, A340; assay type: biochemical
T4 construct: gene 56k.02; recombinant
T4 sequence (Q8T6T2 1-400): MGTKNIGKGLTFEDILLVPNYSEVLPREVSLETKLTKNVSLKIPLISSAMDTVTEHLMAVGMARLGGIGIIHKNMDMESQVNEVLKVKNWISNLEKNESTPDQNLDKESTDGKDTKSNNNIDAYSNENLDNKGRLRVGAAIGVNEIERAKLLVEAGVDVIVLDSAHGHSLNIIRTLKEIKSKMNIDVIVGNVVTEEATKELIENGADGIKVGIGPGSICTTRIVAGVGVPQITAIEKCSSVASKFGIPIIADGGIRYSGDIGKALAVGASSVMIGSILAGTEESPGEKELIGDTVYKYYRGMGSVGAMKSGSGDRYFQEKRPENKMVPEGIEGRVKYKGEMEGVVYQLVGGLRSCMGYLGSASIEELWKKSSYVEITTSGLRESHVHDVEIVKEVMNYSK
Text: NADH production, A340 on CpIMPDH

CjIMPDH [2] = target: T1, CjIMPDH; assay: NADH production, A340; assay type: biochemical
Text: NADH production, A340 on CjIMPDH

VcIMPDH = target: T5, VcIMPDH (Vibrio cholerae, UniProt Q9KTW3); assay: NADH production, A340; assay type: biochemical; details: read-out: IC50 / 1
T5 construct: gene guaB; full-length wild type, N-terminal His6 tag, recombinant E. coli; tetramer
T5 sequence (Q9KTW3 1-489): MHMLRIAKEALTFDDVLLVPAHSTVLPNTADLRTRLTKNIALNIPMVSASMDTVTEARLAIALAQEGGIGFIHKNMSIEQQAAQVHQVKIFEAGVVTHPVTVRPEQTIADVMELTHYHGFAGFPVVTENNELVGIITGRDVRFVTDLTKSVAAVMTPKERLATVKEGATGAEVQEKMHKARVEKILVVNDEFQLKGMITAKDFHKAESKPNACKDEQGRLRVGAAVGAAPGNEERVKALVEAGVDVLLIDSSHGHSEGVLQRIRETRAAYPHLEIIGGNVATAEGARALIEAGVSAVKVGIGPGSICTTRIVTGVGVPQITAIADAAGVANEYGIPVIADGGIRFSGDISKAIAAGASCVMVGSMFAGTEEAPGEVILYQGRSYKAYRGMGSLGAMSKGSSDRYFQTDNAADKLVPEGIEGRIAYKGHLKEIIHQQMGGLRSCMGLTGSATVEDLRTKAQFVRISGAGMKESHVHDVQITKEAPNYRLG
Text: NADH production, A340 on VcIMPDH

[3] = test system: NC(=O)c1ccc[n+]([C@@H]2O[C@H](COP(=O)(O)OP(=O)(O)OC[C@H]3O[C@@H](n4cnc5c(N)ncnc54)[C@H](O)[C@@H]3O)[C@@H](O)[C@H]2O)c1; assay: purified protein; details: pH 8.0; 25.0 °C

T2 sequence (A0A6L8P2U9 1-487 limits assumed): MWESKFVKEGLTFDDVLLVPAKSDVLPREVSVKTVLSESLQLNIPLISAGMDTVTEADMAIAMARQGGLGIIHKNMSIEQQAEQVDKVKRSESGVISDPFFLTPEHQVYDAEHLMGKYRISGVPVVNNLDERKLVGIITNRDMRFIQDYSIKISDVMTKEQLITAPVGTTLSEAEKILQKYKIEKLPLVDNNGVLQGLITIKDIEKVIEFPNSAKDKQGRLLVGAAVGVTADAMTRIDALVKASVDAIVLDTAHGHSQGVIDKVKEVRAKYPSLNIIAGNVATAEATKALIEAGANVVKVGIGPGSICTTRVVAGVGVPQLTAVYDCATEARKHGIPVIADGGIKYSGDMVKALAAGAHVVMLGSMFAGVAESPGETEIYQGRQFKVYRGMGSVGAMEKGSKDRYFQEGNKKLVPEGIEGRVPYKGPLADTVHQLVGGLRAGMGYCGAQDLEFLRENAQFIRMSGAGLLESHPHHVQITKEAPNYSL

For `NC(=O)c1ccc[n+]([C@@H]2O[C@H](COP(=O)(O)OP(=O)(O)OC[C@H]3O[C@@H](n4cnc5c(N)ncnc54)[C@H](O)[C@@H]3O)[C@@H](O)[C@H]2O)c1` [NAD^+], which “NAD^+ Kii” value (CjIMPDH [1]) is on record?
Its value is 20 ± 2 mM.

And the “NAD^+ Kii” value (BaIMPDH)?
The value was 3.9 ± 0.8 mM.

What does the source list for `C[C@@H](Oc1cc[n+]([O-])c2ccccc12)c1cn(-c2ccc(Cl)cc2)nn1` [compound 1, 4-[(1R)-[1-(4-chlorophenyl)-1H-1,2,3-triazol-4yl]ethoxy]quinoline-1-oxide]?
IC50 (CjIMPDHΔS; read-out: IC50 / 1): 107 ± 8 nM; IC50 (CpIMPDH; read-out: IC50 / 1): 9 ± 2 nM; IC50 (CjIMPDH [2]; read-out: IC50 / 1): 140 ± 30 nM

How did the IC50 (VcIMPDH) turn out when `Cn1nc(CC(=O)Nc2ccc3oc4c(c3c2)CCCC4)c2ccccc2c1=O` [compound 3, 3,4-dihydro-3-methyl-4-oxo-N-(6,7,8,9-tetrahydro2-dibenzofuranyl)-1-phthalazineacetamide] was run?
The IC50 was greater than 5000 nM.

And the IC50 (CjIMPDHΔS; read-out: IC50 / 3)?
The IC50 was 200 ± 20 nM.

What about the IC50 (CpIMPDH; read-out: IC50 / 3) of the same compound?
The IC50 was 24 ± 6 nM.

What about the IC50 (CjIMPDH [2]; read-out: IC50 / 3) of the same compound?
Its IC50 is 169 ± 20 nM.

Which IC50 (VcIMPDH) does the source give for `C=C(C)c1cccc(C(C)(C)NC(=O)Nc2ccc(Br)cc2)c1` [compound 4] here?
The IC50 was greater than 5000 nM.

And the IC50 (CjIMPDHΔS; read-out: IC50 / 4)?
Its IC50 is 67 ± 13 nM.

And the IC50 (CpIMPDH; read-out: IC50 / 4)?
The IC50 was 11 ± 5 nM.

What about the IC50 (CjIMPDH [2]; read-out: IC50 / 4) of the same compound?
The IC50 was 36 ± 8 nM.

What does the source list for `C/C(=N\O)c1cccc(C(C)(C)NC(=O)Nc2ccc(Br)cc2)c1` [compound 6]?
IC50 (VcIMPDH): > 5000 nM; IC50 (CjIMPDHΔS; read-out: IC50 / 6): 46 ± 4 nM; IC50 (CpIMPDH; read-out: IC50 / 6): 8 ± 2 nM; IC50 (CjIMPDH [2]; read-out: IC50 / 6): 29 ± 4 nM

What does the source list for `C[C@H](Oc1cccc2ccccc12)C(=O)Nc1ccc2oc(-c3ccncc3)nc2c1` [compound 7, 2-(1-naphthalenyloxy)-N-[2-(4-pyridinyl)-5-benzoxazolyl)-(2S)-propanamide]?
IC50 (VcIMPDH): > 5000 nM; IC50 (CjIMPDHΔS; read-out: IC50 / 7): 19 ± 2 nM; IC50 (CjIMPDH [2]; read-out: IC50 / 7): 13 ± 2 nM

For BaIMPDH (Bacillus anthracis), which Km [3] is on record?
The Km was 550 ± 100 µM.
